The values that follow are results of earlier work, collected in US20220175829A1, “Antimicrobial Compositions” (Matoke Holdings Limited, priority 2019, published 2022).

The conditions of this data set: 20° C. and 1 atm.

Take `O=C(CO)[C@@H](O)[C@H](O)[C@H](O)CO` [Fructose]: the solubility entry was “about 375 g/100 g water”.
